Reference: US9326973B2, “Hepatitis C virus inhibitors” (priority 2012, dated 2016)

Columns and labels:
[1] = test system: HCV replicon, genotype 1a L31V variant with leucine 31 changed to valine in the NS5A protein; type: cell-based, HCV genotype 1a; details: test compound titrated in combination with a fixed 200 nM compound N47; genotype 1a L31V replicon
[2] = test system: HCV replicon, genotype 1a Y93H variant with tyrosine 93 changed to histidine in the NS5A protein; type: cell-based, HCV genotype 1a; details: test compound titrated in combination with a fixed 200 nM compound N47; genotype 1a Y93H replicon
Experimental: Combinations can be examined for synergistic activity using a variety of putative NS5A-targeting compounds and a variety of test compounds. […] The test compound can be chosen from compounds exemplified below, which were prepared by methods known in the art, or from others disclosed in the literature.
Similarly, BMS-790052 can be tested singly and in combination with a fixed amount of compound N47 in the HCV replicon cell based assay consisting of the genotype 1a Y93H variant with tyrosine 93 changed to histidine in the NS5A protein.

COC(=O)NC(C(=O)N1[C@@H](C)CC[C@H]1C1=NCC(c2ccc(-c3cnc(-c4cnc([C@@H]5CC[C@H](C)N5C(=O)[C@@H](NC(=O)OC)[C@H]5C[C@@H](C)O[C@@H](C)C5)[nH]4)c4cccn34)cc2)N1)[C@H]1C[C@@H](C)O[C@@H](C)C1 (stereo partly shown)
Fold-Synergistic G-1a (L31V) [1]: >10 Fold
Fold-Synergistic G-1a (Y93H) [2]: >100 Fold

COC(=O)NC(C(=O)N1[C@@H]2C[C@@H]2C[C@H]1c1nc2ccc(-c3ccc4cc(-c5ccc6nc([C@@H]7C[C@H]8C[C@H]8N7C(=O)[C@@H](NC(=O)OC)C(C)C)[nH]c6c5)ccc4c3)cc2[nH]1)C(C)C (stereo partly shown)
Fold-Synergistic G-1a (L31V) [1]: >10 Fold
Fold-Synergistic G-1a (Y93H) [2]: >10 Fold

COC(=O)N[C@H](C(=O)N1C[C@H](C)C[C@H]1c1ncc(-c2ccc(-c3ccc(-c4cnc([C@@H]5C[C@@H](C)CN5C(=O)[C@@H](NC(=O)OC)C(C)C)[nH]4)cc3)cc2)[nH]1)C(C)C
Fold-Synergistic G-1a (L31V) [1]: >100 Fold
Fold-Synergistic G-1a (Y93H) [2]: >100 Fold

COC(=O)N[C@H](C(=O)N1[C@@H]2C[C@@H]2C[C@H]1c1ncc(-c2ccc(C3C[C@H]3c3ccc(-c4cnc([C@@H]5C[C@H]6C[C@H]6N5C(=O)[C@@H](NC(=O)OC)C(C)C)[nH]4)cc3)cc2)[nH]1)C(C)C (stereo partly shown)
Fold-Synergistic G-1a (L31V) [1]: >10 Fold
Fold-Synergistic G-1a (Y93H) [2]: >10 Fold

COC(=O)N[C@H](C(=O)N1CCC[C@H]1C1=C(c2ccc(C#Cc3ccc4[nH]c([C@@H]5CCCN5C(=O)[C@@H](NC(=O)OC)C(C)C)nc4c3)cc2)NCN1)C(C)C
Fold-Synergistic G-1a (L31V) [1]: <10 Fold
Fold-Synergistic G-1a (Y93H) [2]: >10 Fold

COC(=O)N[C@H](C(=O)N1CCC[C@H]1c1cn(-c2ccc(-c3ccc(-n4cnc([C@@H]5CCCN5C(=O)[C@@H](NC(=O)OC)C(C)C)c4)cc3)cc2)cn1)C(C)C
Fold-Synergistic G-1a (L31V) [1]: >10 Fold
Fold-Synergistic G-1a (Y93H) [2]: >10 Fold

O=C(Nc1ccc(/C=C/c2ccc(NC(=O)[C@@H]3CCCN3C(=O)Cc3ccccc3)cc2)cc1)C1CCCN1C(=O)Cc1ccccc1 (stereo partly shown)
Fold-Synergistic G-1a (L31V) [1]: <10 Fold
Fold-Synergistic G-1a (Y93H) [2]: <10 Fold

COC(=O)N[C@@H](C)C(=O)N1[C@@H]2CC[C@@H](C2)[C@H]1c1nc(-c2ccc(-c3ccc(C4=CNC([C@@H]5[C@H]6CC[C@H](C6)N5C(=O)[C@H](C)NC(=O)OC)N4)cc3)cc2)c[nH]1 (stereo partly shown)
Fold-Synergistic G-1a (L31V) [1]: >10 Fold
Fold-Synergistic G-1a (Y93H) [2]: <10 Fold

COC(=O)N[C@H](C(=O)N1C(c2nc3ccc4cc(C#Cc5ccc6c(ccc7nc([C@@H]8CC9CC9N8C(=O)[C@@H](NC(=O)OC)C(C)C)[nH]c76)c5)ccc4c3[nH]2)C[C@H]2C[C@H]21)C(C)C (stereo partly shown)
Fold-Synergistic G-1a (L31V) [1]: <10 Fold
Fold-Synergistic G-1a (Y93H) [2]: >100 Fold

COC(=O)N[C@@H](C(=O)N1CCCC1c1ncc(C#CC#Cc2cnc([C@@H]3CCCN3C(=O)[C@H](NC(=O)OC)c3ccccc3)[nH]2)[nH]1)c1ccccc1 (stereo partly shown)
Fold-Synergistic G-1a (L31V) [1]: <10 Fold
Fold-Synergistic G-1a (Y93H) [2]: <10 Fold

O=C(Nc1ccc(/C=C/c2ccc(NC(=O)[C@@H]3CCCN3C(=O)Cc3cccnc3)nc2)cn1)C1CCCN1C(=O)Cc1cccnc1 (stereo partly shown)
Fold-Synergistic G-1a (L31V) [1]: <10 Fold
Fold-Synergistic G-1a (Y93H) [2]: <10 Fold

CN(C)[C@@H](C(=O)N1CCCC1c1cnc(-c2ccc3nc([C@@H]4CCCN4C(=O)[C@@H](c4ccccc4)N(C)C)[nH]c3c2)o1)c1ccccc1 (stereo partly shown)
Fold-Synergistic G-1a (L31V) [1]: <10 Fold
Fold-Synergistic G-1a (Y93H) [2]: <10 Fold

COC(=O)N[C@H](C(=O)N1[C@@H]2C[C@@H]2C[C@H]1C(=O)Nc1ccc(C23CC4C5CC6(c7ccc(NC(=O)[C@@H]8C[C@H]9C[C@H]9N8C(=O)[C@@H](NC(=O)OC)C(C)C)cc7)CC4C(C2)C(C6)C5C3)cc1)C(C)C
Fold-Synergistic G-1a (L31V) [1]: <10 Fold
Fold-Synergistic G-1a (Y93H) [2]: <10 Fold

COC(=O)NC(C(=O)N1[C@@H]2C[C@@H]2C[C@H]1c1ncc(-c2cccc(-c3ccc4cc(-c5cnc([C@H]6C[C@@H]7C[C@@H]7N6C(=O)[C@@H](NC(=O)OC)C(C)C)[nH]5)ccc4c3)c2)[nH]1)C(C)C (stereo partly shown)
Fold-Synergistic G-1a (L31V) [1]: <10 Fold
Fold-Synergistic G-1a (Y93H) [2]: >10 Fold
